Data reported in ChEMBL document CHEMBL5352385, “Marine natural products and their synthetic analogs as promising antibiofilm agents for antibiotics discovery and development” (Eur J Med Chem, 2022).
pIC50: −log10 of the molar value.

Legend:
Staphylococcus aureus [1] = assay: Antibiofilm activity against Staphylococcus aureus ATCC 6538 after 24 hrs by crystal violet staining based assay; assay type: functional, organism-based; conditions: ATCC 6538, 24 h
Staphylococcus aureus [2] = assay: Antibiofilm activity against Staphylococcus aureus ATCC 25923 after 24 hrs by crystal violet staining based assay; assay type: functional, organism-based; conditions: ATCC 25923, 24 h
Staphylococcus aureus [3] = assay: Antibiofilm activity against Staphylococcus aureus ATCC 6538 at 100 ug/ml incubated for 24 hrs by crystal violet staining based microplate reader method relative to control; assay type: functional; conditions: dose 100 µg/ml
Staphylococcus aureus [4] = assay: Antibiofilm activity against methicillin-resistant Staphylococcus aureus CH 10850 at 100 ug/ml relative to control; assay type: functional; conditions: dose 100 µg/ml
Marinobacter nauticus = assay: Antibiofilm activity against Marinobacter hydrocarbonoclasticus at 31.25 ug/ml incubated for 24 hrs by crystal violet staining based analysis relative to control; assay type: functional; conditions: dose 31.25 µg/ml
Candida albicans = assay: Antibiofilm activity against Candida albicans assessed as reduction in biofilm formation at 200 ug/ml measured after 48 hrs by crystal violet staining based analysis relative to control; assay type: functional; design: scale not given: the % may be the effect or the level left; conditions: dose 200 µg/ml
Pseudomonas aeruginosa [5] = assay: Antibiofilm activity against Pseudomonas aeruginosa ATCC 15442 after 24 hrs by crystal violet staining based assay; assay type: functional, organism-based; conditions: ATCC 15442, 24 h
[6] = test system: Pseudooceanicola batsensis; assay: Antibiofilm activity against Pseudooceanicola-batsensis at 31.25 ug/ml incubated for 48 hrs by crystal violet staining based analysis relative to control; assay type: functional; conditions: dose 31.25 µg/ml
Micrococcus luteus = assay: Antibiofilm activity against Micrococcus luteus at 31.25 ug/ml incubated for 48 hrs by crystal violet staining based analysis relative to control; assay type: functional; conditions: dose 31.25 µg/ml
Staphylococcus aureus [7] = assay: Antibiofilm activity against Staphylococcus aureus ATCC 6538 assessed as reduction in biofilm formation at 50 ug/ml measured after 24 hrs by crystal violet staining based analysis relative to control; assay type: functional; design: scale not given: the % may be the effect or the level left; conditions: dose 50 µg/ml
[8] = Inhibition of quorum sensing system in Pseudomonas aeruginosa PA01 transfected with lasB-gfp
[9] = Inhibition of quorum sensing system in Pseudomonas aeruginosa PA01 transfected with […]
Staphylococcus aureus [10] = assay: Antibiofilm activity against methicillin-resistant Staphylococcus aureus CH 10850 at 32 ug/ml relative to control; assay type: functional; conditions: dose 32 µg/ml
[11] = test system: Staphylococcus epidermidis; assay: Antibiofilm activity against Staphylococcus epidermidis RP62A; assay type: functional
Staphylococcus aureus [12] = assay: Antibiofilm activity against methicillin-resistant Staphylococcus aureus ATCC 6538 at 100 ug/ml incubated for 24 hrs by crystal violet staining based microplate reader method relative to control; assay type: functional; conditions: dose 100 µg/ml
Streptococcus mutans [13] = assay: Antibiofilm activity against Streptococcus mutans UA159 assessed as inhibition of biofilm formation; assay type: functional, organism-based
Pseudomonas aeruginosa [14] = assay: Antibiofilm activity against Pseudomonas aeruginosa assessed as inhibition of biofilm formation at 100 ug/ml incubated for 24 hrs by crystal violet staining based analysis relative to control; assay type: functional; design: scale not given: the % may be the effect or the level left; conditions: dose 100 µg/ml
Staphylococcus aureus [15] = assay: Antibiofilm activity against methicillin-resistant Staphylococcus aureus CH 10850 at 50 ug/ml relative to control; assay type: functional; conditions: dose 50 µg/ml
Pseudomonas aeruginosa [16] = assay: Antibiofilm activity against Pseudomonas aeruginosa PA01 at 128 ug/ml relative to control; assay type: functional; conditions: dose 128 µg/ml
Streptococcus mutans [17] = assay: Antibiofilm activity against Streptococcus mutans UA159 assessed as inhibition of biofilm formation at 31.0 ug/ml relative to control; assay type: functional; design: scale not given: the % may be the effect or the level left; conditions: dose 31 µg/ml
Streptococcus mutans [18] = assay: Antibiofilm activity against clinical isolate Streptococcus mutans 2.M7/4 assessed as inhibition of biofilm formation at 31.0 ug/ml relative to control; assay type: functional; design: scale not given: the % may be the effect or the level left; conditions: dose 31 µg/ml
[19] = test system: Staphylococcus epidermidis; assay: Antibiofilm activity against […] incubated for 24 hrs; assay type: functional

CC(C)(C)OC(=O)NCCn1cc(-c2nc(-c3c[nH]c4ncccc34)cs2)c2ccccc21
pIC50 (Staphylococcus aureus [1]): 4.95
pIC50 (Staphylococcus aureus [2]): 5.08

CC(C)=CCC/C(C)=C/[C@@H]1CC(C)=C[C@]2(C=C(CO)[C@H]3C[C@@H](O)C(C)=C[C@H]3O2)O1
Activity (Staphylococcus aureus [3]): >95%

C[C@H]1C(=O)O[C@@H]2OC[C@@H]3CCC([C@@]4(C)CCCC(C)(C)C4)=C1[C@@H]32
Activity (Staphylococcus aureus [4]): 85.4%

Cc1c(O)cc2c(c1O)C(=O)[C@@]1(Cl)C[C@@H](Cl)C(C)(C)O[C@@]1(CC1C(C)(C)C(Cl)CC[C@@]1(C)O)C2=O (stereo not given in full)
Activity (Marinobacter nauticus): 25.1%

CC(C)=CCC/C(C)=C/[C@@H]1CC(C)=C[C@]2(C=C(CO)[C@H]3CC(=O)C(C)=C[C@H]3O2)O1
Activity (Staphylococcus aureus [3]): >75%

COCCn1cc(-c2csc(-c3cn(C(=O)OC(C)(C)C)c4ccccc34)n2)c2cccnc21
pIC50 (Staphylococcus aureus [1]): 4.84
pIC50 (Staphylococcus aureus [2]): 5.43

C/C=C1/C(=O)/C(=C(/O)C(C)CCCCCC)C(=O)N1C (stereo not given) [PENICILLENOL B1]
Activity (Candida albicans): 80%

C/C(=C/C[C@@]12OC(C)(C)[C@H](Cl)C[C@]1(Cl)C(=O)c1c(O)cc(O)cc1C2=O)CC/C=C(\C)CO
Activity (Marinobacter nauticus): 60.2%

COCCn1cc(-c2nc(-c3cn(C)c4ncccc34)cs2)c2cc(Br)ccc21
pIC50 (Staphylococcus aureus [1]): 4.62
pIC50 (Staphylococcus aureus [2]): 5.69
pIC50 (Pseudomonas aeruginosa [5]): 5.01

C=C(C)C(O)CC/C(C)=C/C[C@@]12OC(C)(C)[C@H](Cl)C[C@]1(Cl)C(=O)c1c(O)cc(O)cc1C2=O (stereo not given in full)
Activity [6]: 13.4%
Activity (Marinobacter nauticus): 56.9%
Activity (Micrococcus luteus): 97%

CCCCCCC(C)/C(O)=C1\C(=O)[C@H](C(C)O)N(C)C1=O (stereo not given in full)
Activity (Candida albicans): 80%

C=C1CCC(Br)C(C)(C)C1C[C@@]12OC(C)(C)[C@H](Cl)C[C@]1(Cl)C(=O)c1c(O)cc(O)cc1C2=O (stereo not given in full)
Activity [6]: 26.2%
Activity (Marinobacter nauticus): 59.3%
Activity (Micrococcus luteus): 100%

COc1cc(-c2ccccn2)nc2cnsc12
Activity (Staphylococcus aureus [7]): >50%

Cn1cc(-c2csc(-c3cn(CCN)c4ccc(F)cc34)n2)c2cccnc21
pIC50 (Staphylococcus aureus [1]): 4.88
pIC50 (Staphylococcus aureus [2]): 5.90
pIC50 (Pseudomonas aeruginosa [5]): 5.00

O=C(NCCSSCCNC(=O)/C(Cc1cc(Br)c(O)c(-c2cc(C/C(=N\O)C(=O)NCCSSCCNC(=O)/C(Cc3ccc(O)c(Br)c3)=N/O)cc(Br)c2O)c1)=N\O)/C(Cc1ccc(O)c(Br)c1)=N\O
pIC50 [8]: 5.07
pIC50 [9]: 5.06

NCC(c1c[nH]c2cc(Br)ccc12)c1c[nH]c2cc(Br)ccc12
Activity (Staphylococcus aureus [10]): 56.3%

CCCCC/C=C/C(=O)CCCCCCCC(=O)O
MBIC [11]: >128 µg/mL

CC(C)=CCC/C(C)=C\C[C@@]12OC(C)(C)[C@H](Cl)C=C1C(=O)c1c(cc(O)c(C)c1O)C2=O
Activity (Marinobacter nauticus): 23.4%

CC(=O)OCC1=C[C@]2(C=C(C)C[C@@H](/C=C(\C)CCC=C(C)C)O2)O[C@@H]2C=C(C)C(=O)C[C@H]12
Activity (Staphylococcus aureus [12]): 50%

C=C(C)C(=O)CC/C(C)=C/C[C@@]12OC(C)(C)[C@H](Cl)C[C@]1(Cl)C(=O)c1c(O)cc(O)cc1C2=O
Activity (Marinobacter nauticus): 43.4%
Activity (Micrococcus luteus): 87.3%

COc1ccc(CCNC2=CC3=NCCc4cn(S(=O)(=O)c5ccc(C)cc5)c(c43)C2=O)cc1
pIC50 (Streptococcus mutans [13]): 5.70

CCCCCC1OC1C(O)CCCCCCCCCC(=O)O (stereo not given)
MBIC [11]: 32 µg/mL

O=C(NCCSSCCNC(=O)/C(Cc1ccc(O)c(Br)c1)=N/O)/C(Cc1ccc(O)c(Br)c1)=N/O [PSAMMAPLIN A]
pIC50 [8]: 4.51
pIC50 [9]: 5.58

CCC(C)C(=O)NCCc1ccccc1 (stereo not given)
Activity (Pseudomonas aeruginosa [14]): 50.6%

COCCn1cc(-c2nc(-c3cn(C)c4ncccc34)cs2)c2cc(F)ccc21
pIC50 (Staphylococcus aureus [1]): 4.29
pIC50 (Staphylococcus aureus [2]): 6.40

CCCCC/C=C/C(=O)CCCCCCCCCC(=O)O
MBIC [11]: 16 µg/mL

CC(=O)OC1OC2OC(=O)[C@H](C)C34OOC([C@@]5(C)CCCC(C)(C)C5)(CC[C@@H]1C23)O4 (stereo not given in full)
Activity (Staphylococcus aureus [4]): 99%

COC(=O)[C@H](C)c1c([C@@]2(C)CCCC(C)(C)C2)ccc2c1[C@H](O)OC2=O
Activity (Staphylococcus aureus [15]): 97.8%

C=C1CCC(Br)C(C)(C)C1C[C@@]12OC(C)(C)[C@H](Cl)C=C1C(=O)c1c(O)cc(O)cc1C2=O (stereo not given in full)
Activity [6]: 26.2%
Activity (Marinobacter nauticus): 59.3%
Activity (Micrococcus luteus): 100%

CC(C)=CCC/C(C)=C/[C@@H]1CC(C)=C[C@]2(C=C(CO)[C@H]3C[C@H](O)C(C)=C[C@H]3O2)O1
Activity (Staphylococcus aureus [3]): >95%

COC(=O)[C@H](C)c1c([C@@]2(C)CCCC(C)(C)C2)ccc2c1C(=O)OC2
Activity (Staphylococcus aureus [15]): 99.9%

CC(=O)O[C@@H]1O[C@H](OC(C)=O)[C@H]2C(=O)[C@@H]([C@@]3(C)CCCC(C)(C)C3)CC[C@@H]12
Activity (Staphylococcus aureus [15]): 97.7%

C=C1CCC(Cl)C(C)(C)C1C[C@@]12OC(C)(C)[C@H](Cl)C=C1C(=O)c1c(cc(O)c(C)c1O)C2=O (stereo not given in full)
Activity (Marinobacter nauticus): 33.7%

NCC(c1c[nH]c2cc(F)ccc12)c1c[nH]c2cc(F)ccc12
Activity (Staphylococcus aureus [10]): 61%

O=C1Nc2cc(Br)ccc2[C@@]1(c1c[nH]c2ccccc12)C1CNc2ccccc21 (stereo not given in full)
Activity (Pseudomonas aeruginosa [16]): 41.76%

COc1cc(-c2ccccn2)nc(/C=N/O)c1[S+](C)[O-] (stereo not given)
Activity (Staphylococcus aureus [7]): >80%

COc1cc(-c2ccccn2)nc(C#N)c1SC
Activity (Staphylococcus aureus [7]): >50%

Cc1ccc(S(=O)(=O)n2cc3c4c2C(=O)C(NCCc2ccc5c(c2)COC5)=CC4=NCC3)cc1
pIC50 (Streptococcus mutans [13]): 6.40

CCCCCCCCC[C@H](CC(=O)NCCCCN)N1CC(=O)N[C@@H](Cc2ccccc2)C1=O
Activity (Streptococcus mutans [17]): 90%
Activity (Streptococcus mutans [18]): 34.8%

COCCn1cc(-c2nc(-c3c[nH]c4ncccc34)cs2)c2cc(Br)ccc21
pIC50 (Staphylococcus aureus [1]): 4.68
pIC50 (Staphylococcus aureus [2]): 5.77
pIC50 (Pseudomonas aeruginosa [5]): 5.01

O=C(OCc1ccccc1)c1ccccc1 [BENZYL BENZOATE]
Activity (Pseudomonas aeruginosa [14]): 37.7%

CCC1=C(C=O)[C@H](C(=O)OC)CC[C@@H]1[C@@]1(C)CCCC(C)(C)C1
Activity (Staphylococcus aureus [4]): 90.7%

C/C=C/CCCC(C)/C(O)=C1\C(=O)[C@@H](C(C)O)N(C)C1=O (stereo not given in full)
Activity (Candida albicans): 80%

CC(=O)O[C@@H]1C[C@@H]2C(CO)=C[C@]3(C=C(C)C[C@@H](/C=C(\C)CCC=C(C)C)O3)O[C@@H]2C=C1C
Activity (Staphylococcus aureus [12]): 50%

CC(C)=CCC/C(C)=C\C[C@@]12OC(C)(C)[C@H](Cl)C[C@]1(Cl)C(=O)c1c(cc(O)c(C)c1O)C2=O
Activity (Marinobacter nauticus): 28%

Cn1c(-c2nnc(-c3ccc(N)cc3)o2)cc(Br)c1Br
MBIC [19]: 3.125 µg/mL

CC(C)=CCC/C(C)=C\C[C@@]12OC(C)(C)[C@H](Cl)C[C@]1(Cl)C(=O)c1c(O)cc(O)cc1C2=O
Activity [6]: 87.2%
Activity (Micrococcus luteus): 88.6%

CCCCCCCCC[C@H](CC(=O)NCCCN)N1CC(=O)N[C@@H](Cc2ccccc2)C1=O
Activity (Streptococcus mutans [17]): 90%
Activity (Streptococcus mutans [18]): 34.8%

C=C(C)C(=O)CC/C(C)=C\C[C@@]12OC(C)(C)[C@H](Cl)C=C1C(=O)c1c(O)cc(O)cc1C2=O
Activity (Marinobacter nauticus): 43.4%
Activity (Micrococcus luteus): 87.3%

C=C1CCC(Cl)C(C)(C)C1C[C@@]12OC(C)(C)[C@H](Cl)C[C@]1(Cl)C(=O)c1c(cc(O)c(C)c1O)C2=O (stereo not given in full)
Activity (Marinobacter nauticus): 48.2%

Cc1ccc(S(=O)(=O)n2cc3c4c2C(=O)C(NCc2ccc(Cl)cc2)=CC4=NCC3)cc1
pIC50 (Streptococcus mutans [13]): 5.60

COc1ccc(CNC2=CC3=NCCc4cn(S(=O)(=O)c5ccc(C)cc5)c(c43)C2=O)cc1OC
pIC50 (Streptococcus mutans [13]): 5.59

CC(=O)O[C@H]1C[C@@H]2C(CO)=C[C@]3(C=C(C)C[C@@H](/C=C(\C)CCC=C(C)C)O3)O[C@@H]2C=C1C
Activity (Staphylococcus aureus [12]): 50%
